Patent publication US20220305090A1, “HAIR GROWING AGENT AND FOOD OR BEVERAGE PRODUCT COMPRISING SAME” (NITTA GELATIN INC., priority 2019, published 2022)

Experiments:
[1] = tested on: human normal hair papilla cells HFDPC-C; experiment: Cell growth test on hair papilla cells (neutral red method, living cell number vs purified water control); assay type: cell-based; settings: for Hair papilla cell growth promoting action (in words): conclusion from Tables 1, 2 and 4; for Growth rate control = 100: 72 hours culture
Description: First, human normal hair papilla cells HFDPC-C (manufactured by Takara Bio Inc.) were obtained, and the hair papilla cells were then seeded at 0.2×10^4/dish in each well of a 96-well plate for cell culture (manufactured by Corning Inc.). Further, 200 μL of a basal medium (trade name: “Follicle Dermal Papilla Cell Basal Medium”, manufactured by Takara Bio Inc.) containing a growth factor accompanying the obtained hair papilla cells was supplied to each well, and the hair papilla cells were precultured in each well at 37° C. for 24 hours.
Next, the hair papilla cells were confirmed to be subconfluent, and the basal medium in each well was then replaced by 200 μL of another basal medium (trade name: “Follicle Dermal Papilla Cell Basal Medium”, manufactured by Takara Bio Inc.) free of the growth factor described above. In this way, hair papilla cells to be used for determining whether or not addition of the above-described samples promote cell growth were prepared.
To the hair papilla cells prepared as described above, amino acids, combinations of amino acids, peptides and collagen peptide mixtures which are the samples described above were added at final concentrations shown in Tables 1 and 2, and the hair papilla cells were cultured in each well at 37° C. for 72 hours. Here, to one of the wells containing the hair papilla cells prepared as described above, 20 μL, of purified water was added, and as with other hair papilla cells, culturing was performed at 37° C. for 72 hours to prepare a control test sample (control). Thereafter, for each of the hair papilla cells in the wells containing purified water or the samples, the number of living cells (living cell number) was counted by a neutral red method. Here, the “neutral red method” is a method in which neutral red is added at a final concentration of 150 μg/mL into a well where cells are cultured, the cells are cultured for 20 minutes, and washed with PBS (phosphate buffer physiological saline), 200 μL of a 50 mass % ethanol solution containing 1 mass % acetic acid is added into the well as an extraction liquid, the mixture is stirred, and the absorbance of the well containing the neutral red is measured at a wavelength of 540 nm to measure the number of living cells in the well.
The number of living cells of hair papilla cells in the well containing the sample with respect to the number of living cells of hair pallia cells in the well containing purified water (control test sample) was determined as a cell growth rate (%) to evaluate the hair papilla cell growth promoting action in the sample. Further, the cell growth rate (%) was subjected to statistical processing to evaluate significance of the hair papilla cell growth promoting action in the sample. […] Thereafter, the Student's t-test (t-test) was conducted to evaluate significance. […] In Tables 1 and 2, samples with “++” were determined to have a significance in the hair papilla cell growth promoting action. In samples with “+”, the cell growth rate (%) exceeded 100.

hairless mice = experiment: Test for confirming hair development effect and hair growth effect using hairless mouse (visual amount of head hair); assay type: in vivo
Description: Thirty 8-week-old male and female hairless mice were provided by purchase from Hoshino Laboratory Animals, Inc. The hairless mice were divided into five groups each consisting of six mice with no regard to sex. Specifically, the plurality of groups consist of a normal group given a normal feed (trade name: “Labo MR Stock”, manufactured by Nosan Corporation), a control group given magnesium-deficient specialty feed (trade name: “HR-AD Feed”, manufactured by Nosan Corporation), a first group given a mixed feed obtained by adding Pro-Hyp at a content of 0.3 mass % to the magnesium-deficient specialty feed, a second group given a mixed feed obtained by adding the collagen peptide mixture A at a content of 5 mass % to the magnesium-deficient specialty feed, and a third group given a mixed feed obtained by adding a collagen peptide mixture C of the later-described composition at a content of 2.5 mass % to the magnesium-deficient specialty feed.
The heads of the hairless mice in the above-described groups were observed immediately after they were reared for 3 weeks to 11 weeks of age under the following conditions: the temperature was 23±2° C., the relative humidity was 55±10%, the lighting cycle was 12 hours, the light period started at 7:00 and ended at 19:00, and the mice were allowed to freely eat. […] At the time of obtaining the hairless mice, their heads had no hair.
Further, a 2-week-old hairless mouse before starting to lose its hair was obtained from Hoshino Laboratory Animals, Inc., and relative to the amount of head hair of the hairless mouse which is defined as 10, the amount of head hair of each of the 11-week-old hairless mice in each group was visually measured. […] Each of the values in the table represents an average of the amounts of head hair of the six hairless mice in each group.

[2] = final concentration 0.05 mM, Table 4 (control test)
[3] = final concentration 0.5 mM, Table 4 (control test)
[4] = final concentration 5 mM, Table 4 (control test)
[5] = final concentration 0.05 mM, Table 1
[6] = final concentration 0.5 mM, Table 1
[7] = final concentration 5 mM, Table 1

Row | Compound | Hair papilla cell growth promoting action (in words) [1] | Growth rate control = 100 ([1]; final concentration 0.05 mM) [%] | Assessment [1, 2] | Growth rate control = 100 ([1]; final concentration 0.5 mM) [%] | Assessment [1, 3] | Growth rate control = 100 ([1]; final concentration 5 mM) [%] | Assessment [1, 4] | Assessment [1, 5] | Assessment [1, 6] | Assessment [1, 7] | Score (amount of head hair, 2-week-old hairless mouse = 10) (hairless mice; First group: 0.3 mass % in magnesium-deficient specialty feed, 3 weeks, 11-week-old hairless mice, average of six) | Effectiveness as hair growing agent (in words) (hairless mice; conclusion from Table 3) | Hair development in the hair of head (FIG. 2 vs FIG. 1) (hairless mice; mixed feed with 0.3 mass % Pro-Hyp, 11-week-old hairless mice, compared with control group)
1 | C[C@H](N)C(=O)O [Ala, alanine, reference compound] | poor hair papilla cell growth promoting action | 94 ± 1 | − | 100 ± 8 | − | 95 ± 1 | − |  |  |  |  |  | 
2 | N=C(N)NCCC[C@H](N)C(=O)O [Arg, arginine, reference compound] | poor hair papilla cell growth promoting action | 93 ± 6 | − | 98 ± 3 | − | 101 ± 2 | − |  |  |  |  |  | 
3 | NCC(=O)O.O=C(O)[C@@H]1CCCN1 [GP, glycine-proline] | had a hair papilla cell growth promoting action | 105 ± 4 |  | 109 ± 2 |  | 114 ± 2 |  | + (In samples with “+”, the cell growth rate (%) exceeded 100) | ++ | ++ |  |  | 
4 | NC(=O)CC[C@H](N)C(=O)O [Gln, glutamine, reference compound] | poor hair papilla cell growth promoting action | 92 ± 2 | − | 94 ± 5 | − | 100 ± 4 | − |  |  |  |  |  | 
5 | O=C(O)[C@@H]1C[C@@H](O)CN1 [O, hydroxyproline] | had a hair papilla cell growth promoting action | 114 ± 1 |  | 114 ± 3 |  | 110 ± 5 |  | ++ | ++ | ++ |  |  | 
6 | NCC(=O)O.O=C(O)[C@@H]1CCCN1 [PG, proline-glycine] | had a hair papilla cell growth promoting action | 120 ± 5 |  | 120 ± 1 |  | 120 ± 5 |  | ++ | ++ | ++ |  |  | 
7 | O=C(O)[C@@H]1CCCN1 [Pro, proline, reference compound] | poor hair papilla cell growth promoting action | 91 ± 4 | − | 93 ± 5 | − | 96 ± 1 | − |  |  |  |  |  | 
8 | alanine-hydroxyproline-glycine [AOG] | had a hair papilla cell growth promoting action | 127 ± 5 |  | 126 ± 2 |  | 119 ± 2 |  | ++ | ++ | ++ |  |  | 
9 | glutamic acid-hydroxyproline [EO] | had a hair papilla cell growth promoting action | 102 ± 6 |  | 109 ± 4 |  |  |  | + (In samples with “+”, the cell growth rate (%) exceeded 100) | + (In samples with “+”, the cell growth rate (%) exceeded 100) |  |  |  | 
10 | glutamic acid-hydroxyproline-glycine [EOG] | had a hair papilla cell growth promoting action | 126 ± 10 |  | 131 ± 1 |  | 121 ± 8 |  | ++ | ++ | ++ |  |  | 
11 | glycine-proline-hydroxyproline [GPO] | had a hair papilla cell growth promoting action | 126 ± 3 |  | 125 ± 4 |  | 120 ± 4 |  | ++ | ++ | ++ |  |  | 
12 | leucine-hydroxyproline [LO] | had a hair papilla cell growth promoting action | 104 ± 6 |  | 105 ± 2 |  | 104 ± 5 |  | + (In samples with “+”, the cell growth rate (%) exceeded 100) | + (In samples with “+”, the cell growth rate (%) exceeded 100) | + (In samples with “+”, the cell growth rate (%) exceeded 100) |  |  | 
13 | phenylalanine-hydroxyproline [FO] | had a hair papilla cell growth promoting action | 104 ± 4 |  | 106 ± 2 |  | 104 ± 1 |  | + (In samples with “+”, the cell growth rate (%) exceeded 100) | + (In samples with “+”, the cell growth rate (%) exceeded 100) | ++ |  |  | 
14 | proline-alanine [PA] | had a hair papilla cell growth promoting action | 105 ± 2 |  | 111 ± 1 |  | 107 ± 5 |  | + (In samples with “+”, the cell growth rate (%) exceeded 100) | + (In samples with “+”, the cell growth rate (%) exceeded 100) | + (In samples with “+”, the cell growth rate (%) exceeded 100) |  |  | 
15 | proline-alanine-glycine [PAG] | had a hair papilla cell growth promoting action | 110 ± 4 |  | 113 ± 1 |  | 115 ± 4 |  | + (In samples with “+”, the cell growth rate (%) exceeded 100) | ++ | ++ |  |  | 
16 | proline-hydroxyproline [PO] | had a hair papilla cell growth promoting action | 126 ± 8 |  | 127 ± 3 |  | 129 ± 6 |  | ++ | ++ | ++ | 8 | effective as hair growing agents | hair development occurred in the hair of head
17 | proline-proline [PP] | had a hair papilla cell growth promoting action | 116 ± 3 |  | 113 ± 6 |  | 109 ± 2 |  | ++ | ++ | ++ |  |  | 
18 | serine-hydroxyproline-glycine [SOG] | had a hair papilla cell growth promoting action | 113 ± 10 |  | 116 ± 3 |  | 109 ± 2 |  | + (In samples with “+”, the cell growth rate (%) exceeded 100) | ++ | + (In samples with “+”, the cell growth rate (%) exceeded 100) |  |  | 
